Reference: patent US9464060B2, “Compounds” (TAKEDA PHARMACEUTICAL COMPANY LIMITED, priority 2013, dated 2016)

Each compound was assayed against LPA5 receptor (Homo sapiens (Human), UniProt Q9H1C0) (assay: In vitro LPA5 receptor assay (LPA-driven intracellular calcium release, FLIPR)). Conditions: RH7777 cells expressing human LPA5 receptors; LPA at EC90.
Format: cell-based
Experimental: In Vitro LPA5 Receptor Assay
Engagement of the LPA5 receptor by its ligand, oleoyl-L-α-lysophosphatidic acid (LPA), leads to the release of intracellular stores of calcium into the cytoplasm mediated through a Gq-driven increase in inositol triphosphate (IP3) levels. Gq is a heterotrimeric G protein subunit that activates phospholipase C.
The ability of test compounds to prevent LPA-driven intracellular release of stored calcium from RH7777 cells expressing human LPA5 receptors was assayed by stimulating the cells with LPA in the presence of various test compounds to measure the test compounds'antagonism, i.e. activity in vitro.
Approximately 10,000 cells in normal culture medium (Minimal Essential Media, 10% Foetal Calf Serum) were dispensed per assay well in a black clear bottom poly-D-lysine coated 384 well plate (Corning). Cells were allowed to settle for thirty minutes at room temperature before being incubated overnight at 37° C., 5% CO2. Sixteen to twenty hours after dispensing, the cells were loaded with a calcium-sensitive fluorescent dye by replacing the culture medium with assay buffer (1× Hanks buffered saline, 25 mM HEPES, 0.1% w/v fatty acid free BSA (bovine serum albumin), pH7.4) containing 1.25 mM probenecid and 1× Calcium 5 Reagent (Molecular Devices). Cells were incubated at 37° C. for one hour to allow for dye uptake.
To test for antagonist activity, test compounds at a final concentration range between 0.32 nM-10 μM (diluted in assay buffer) were added to the assay wells and allowed to incubate for fifteen minutes. […] Ligand-dependent changes in intracellular calcium levels were determined by measuring changes in fluorescence of the dye over […] following excitation over […].

Sequence of LPA5 receptor (Q9H1C0 whole entry): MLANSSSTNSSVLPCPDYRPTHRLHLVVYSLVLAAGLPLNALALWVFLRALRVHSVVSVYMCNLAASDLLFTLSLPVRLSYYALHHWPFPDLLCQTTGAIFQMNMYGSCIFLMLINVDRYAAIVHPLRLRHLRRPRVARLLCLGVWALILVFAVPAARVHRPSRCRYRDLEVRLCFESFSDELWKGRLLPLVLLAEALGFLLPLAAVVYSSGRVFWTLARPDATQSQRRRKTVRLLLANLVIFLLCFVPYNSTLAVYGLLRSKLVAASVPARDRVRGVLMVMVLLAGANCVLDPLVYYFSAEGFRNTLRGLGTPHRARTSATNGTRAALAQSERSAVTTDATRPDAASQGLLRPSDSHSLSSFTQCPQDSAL

| Structure (SMILES) | IC50 |
| --- | --- |
| CCN(Cc1ccc(C(=O)O)cc1)C(=O)c1ccc(Oc2ccccc2F)cc1 [Example 1, 4-((N-Ethyl-4-(2-fluorophenoxy)benzamido)methyl)benzoic acid] | 840 nM |
| O=C(O)c1ccc(CN(CC2CCC2)C(=O)c2ccc(Oc3ccccc3F)cc2)cc1 [Example 6, 4-((N-(Cyclobutylmethyl)-4-(2-fluorophenoxy)benzamido)-methyl)benzoic acid] | 24 nM |
| O=C(O)c1ccc(CN(CCc2ccccc2)C(=O)c2ccc(Oc3ccccc3F)cc2)cc1 [Example 15, 4-((4-(2-Fluorophenoxy)-N-phenethylbenzamido)methyl)benzoic acid] | 120 nM |
| O=C(O)c1ccc(CN(CCc2ccccc2)C(=O)c2ccc(Oc3ccccc3C(F)(F)F)cc2)cc1 [Example 26, 4-((N-Phenethyl-4-(2-(trifluoromethyl)phenoxy)benzamido)-methyl)benzoic acid] | 260 nM |
| O=C(O)c1ccc(CN(CCCCc2ccccc2)C(=O)c2ccc(Oc3ccccc3F)cc2)cc1 [Example 21, 4-((4-(2-Fluorophenoxy)-N-(4-phenylbutyl)-benzamido)methyl)benzoic acid] | 11 nM |
| O=C(O)c1ccc(CN(Cc2ccccc2F)C(=O)c2ccc(Oc3ccccc3F)cc2)cc1 [Example 12, 4-((N-(2-Fluorobenzyl)-4-(2-fluorophenoxy)benzamido)-methyl)benzoic acid] | 9 nM |
| COC1CC(CN(Cc2ccc(C(=O)O)cc2)C(=O)c2ccc(Oc3ccccc3F)cc2)C1 (centres unmarked) [Example 7, 4-((4-(2-Fluorophenoxy)-N-((3-methoxycyclobutyl)methyl)-benzamido)methyl)benzoic acid] | 31 nM |
| O=C(O)c1ccc(CN(CCC2CC2)C(=O)c2ccc(Oc3ccccc3F)cc2)cc1 [Example 9, 4-((N-(2-Cyclopropylethyl)-4-(2-fluorophenoxy)benzamido)-methyl)benzoic acid] | 15 nM |
| Cc1ccccc1Oc1ccc(C(=O)N(Cc2ccc(C(=O)O)cc2)CC2CCC2)cc1 [Example 23, 4-((N-(Cyclobutylmethyl)-4-(o-tolyloxy)benzamido)methyl)benzoic acid] | 44 nM |
| O=C(O)c1ccc(CN(CC(F)F)C(=O)c2ccc(Oc3ccccc3F)cc2)cc1 [Example 2, 4-((N-(2,2-Difluoroethyl)-4-(2-fluorophenoxy)benzamido)-methyl)benzoic acid] | 690 nM |
| N#Cc1ccccc1Oc1ccc(C(=O)N(Cc2ccccc2)Cc2ccc(C(=O)O)cc2)cc1 [Example 27, 4-((N-Benzyl-4-(2-cyanophenoxy)benzamido)methyl)benzoic acid] | 200 nM |
| CCOc1ccccc1Oc1ccc(C(=O)N(Cc2ccc(C(=O)O)cc2)CC2CC2)cc1 [Example 34, 4-((N-(Cyclopropylmethyl)-4-(2-ethoxyphenoxy)-benzamido)methyl)benzoic acid] | 460 nM |
| O=C(O)c1ccc(CN(CCC2CCC2)C(=O)c2ccc(Oc3ccccc3F)cc2)cc1 [Example 10, 4-((N-(2-Cyclobutylethyl)-4-(2-fluorophenoxy)benzamido)-methyl)benzoic acid] | 48 nM |
| O=C(O)c1ccc(CN(CCCc2ccccc2F)C(=O)c2ccc(Oc3ccccc3F)cc2)cc1 [Example 16, 4-((4-(2-Fluorophenoxy)-N-(3-(2-fluorophenyl)propyl)benzamido)methyl)benzoic acid] | 1 nM |

More lines, now with the values ahead:

| IC50 | Structure (SMILES) |
| --- | --- |
| 53 nM | O=C(O)c1ccc(CN(CC2CC2)C(=O)c2ccc(OCc3ccccc3F)cc2)cc1 [Example 51, 4-((N-(Cyclopropylmethyl)-4-((2-fluorobenzyl)oxy)benzamido)-methyl)benzoic acid] |
| 58 nM | O=C(O)c1ccc(CN(Cc2ccccc2)C(=O)c2ccc(OCc3ccccc3F)cc2)cc1 [Example 53, 4-((N-Benzyl-4-((2-fluorobenzyl)oxy)benzamido)methyl)benzoic acid] |
| 3300 nM | COc1cccc(Oc2ccc(C(=O)N(CCc3ccccc3)Cc3ccc(C(=O)O)cc3)cc2)c1 [Example 48, 4-((4-(3-Methoxyphenoxy)-N-phenethylbenzamido)methyl)benzoic acid] |
| 11 nM | O=C(O)c1ccc(CN(Cc2ccccc2)C(=O)c2ccc(Oc3c(F)cccc3F)cc2)cc1 [Example 39, 4-((N-Benzyl-4-(2,6-difluorophenoxy)benzamido)methyl)benzoic acid] |
| 89 nM | Cc1cccc(F)c1Oc1ccc(C(=O)N(Cc2ccc(C(=O)O)cc2)CC2CCC2)cc1 [Example 41, 4-((N-(Cyclobutylmethyl)-4-(2-fluoro-6-methylphenoxy)benzamido)methyl)benzoic acid] |
| 11 nM | O=C(O)c1ccc(CN(Cc2ccccc2)C(=O)c2ccc(Oc3c(F)cccc3Cl)cc2)cc1 [Example 44, 4-((N-Benzyl-4-(2-chloro-6-fluorophenoxy)benzamido)-methyl)benzoic acid] |
| 690 nM | O=C(O)c1ccc(CN(Cc2ccccc2)C(=O)C2CCC(Oc3ccccc3F)CC2)cc1 (centres unmarked) [Example 55, 4-((N-Benzyl-4-(2-fluorophenoxy)cyclohexanecarboxamido)-methyl)benzoic acid] |
| 58 nM | O=C(O)c1ccc(CN(CCC2CC2)C(=O)c2ccc(Oc3c(F)cccc3Cl)cc2)cc1 [Example 43, 4-((4-(2-Chloro-6-fluorophenoxy)-N-(2-cyclopropylethyl)-benzamido)methyl)benzoic acid] |
| 3600 nM | O=C(O)c1ccc(CN(CCc2ccccc2)C(=O)c2ccc(Oc3cccc(Cl)c3)cc2)cc1 [Example 50, 4-((4-(3-Chlorophenoxy)-N-phenethylbenzamido)methyl)benzoic acid] |
| 4600 nM | COc1ccc(Oc2ccc(C(=O)N(CCc3ccccc3)Cc3ccc(C(=O)O)cc3)cc2)cc1 [Example 49, 4-((4-(4-Methoxyphenoxy)-N-phenethylbenzamido)methyl)benzol acid] |
| 370 nM | O=C(O)c1ccc(CN(CC2CCC2)C(=O)c2ccc(OCc3ccccc3F)cc2)cc1 [Example 52, 4-((N-(Cyclobutylmethyl)-4-((2-fluorobenzyl)oxy)benzamido)-methyl)benzoic acid] |
| 17 nM | O=C(O)c1ccc(CN(CC2CC2)C(=O)c2ccc(Oc3c(F)cccc3Cl)cc2)cc1 [Example 42, 4-((4-(2-Chloro-6-fluorophenoxy)-N-(cyclopropylmethyl)-benzamido)methyl)benzoic acid] |
| 6 nM | COc1cccc(CN(Cc2ccc(C(=O)O)c(F)c2)C(=O)c2ccc(Oc3ccccc3F)cc2)c1 [Example 59, 2-Fluoro-4-((4-(2-fluorophenoxy)-N-(3-methoxybenzyl)benzamido)methyl)benzoic acid] |
| 180 nM | COc1ccccc1O[C@H]1CC[C@H](C(=O)N(Cc2ccccc2)Cc2ccc(C(=O)O)cc2)CC1 [Example 56, trans-4-((N-Benzyl-4-(2-methoxyphenoxy)cyclohexanecarboxamido)methyl)benzoic acid] |
| 7 nM | O=C(O)c1ccc(CN(CC2CC2)C(=O)c2ccc(Oc3ccccc3Cl)cc2)cc1 [Example 35, 4-((4-(2-Chlorophenoxy)-N-(cyclopropylmethyl)benzamido)-methyl)benzoic acid] |
